For 1 compound, inhibition results are on record in patent US10774083B2, “Heterocyclic amide compound” (TAKEDA PHARMACEUTICAL COMPANY LIMITED, priority 2016, dated 2020).

Assay [1] has as its system human ovarian cancer cells A2780. Kind of assay: proliferation inhibitory activity against human ovarian cancer cell A2780 (CellTiter-Glo). To be noted: A2780, 72 h, 1 μM test compound, 3 days of culture, read-out: proliferation inhibitory rate (%) of A2780 cells. Type of assay: cell-based. Summed up:
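A2780 cells in RPMI-1640 with 10% FBS, compound added the day after seeding and cultured 3 days. Viability by CellTiter-Glo luminescence. Inhibition (%) calculated with cell-free wells as 100% inhibition.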
On the technique in general: Cellular ATP, detected with luciferase, serves as a proxy for viable cell number.

For assay [2], the target named is T1, human PRS protein (His-Avi-hEPRS (998-1512)) (Homo sapiens, UniProt P07814).
T1 construct: to construct His-Avi-hEPRS (998-1512) expression plasmid; His tag (N); Avi tag (N); TEV cleavage site (ENLYFQG, then S; inferred from the forward primer hEPRS-TEV-NheF) (N); made in house; host or cells: E. coli BL21(DE3)
T1 sequence (P07814 998-1512 limits assumed): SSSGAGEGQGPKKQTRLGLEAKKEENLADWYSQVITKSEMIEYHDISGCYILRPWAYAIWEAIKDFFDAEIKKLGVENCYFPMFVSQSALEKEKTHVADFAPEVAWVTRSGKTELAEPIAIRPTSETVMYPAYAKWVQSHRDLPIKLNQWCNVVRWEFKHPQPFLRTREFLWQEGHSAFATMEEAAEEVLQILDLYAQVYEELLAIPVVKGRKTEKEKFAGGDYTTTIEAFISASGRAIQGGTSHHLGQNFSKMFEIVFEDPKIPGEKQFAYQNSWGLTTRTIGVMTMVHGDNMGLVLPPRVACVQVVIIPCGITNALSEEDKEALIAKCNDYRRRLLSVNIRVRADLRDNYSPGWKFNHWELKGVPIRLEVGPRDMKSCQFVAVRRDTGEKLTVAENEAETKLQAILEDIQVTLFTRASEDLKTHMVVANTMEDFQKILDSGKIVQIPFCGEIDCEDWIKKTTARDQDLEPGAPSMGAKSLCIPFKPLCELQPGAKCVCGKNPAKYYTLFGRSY
Kind of assay: PRS inhibitory activity ([32P]pyrophosphate exchange enzyme assay). As to conditions: 300 nM test compound; read-out: inhibitory rate (%) of PRS. In kind it is biochemical. The method in brief: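 Compound was pre-incubated 60 min with 40 nM His-Avi-hEPRS (998-1512) (stock, E. coli-expressed) in Tris pH 7.5/KCl/DTT/Tween/MgCl2. Reaction began with substrate mix containing 300 μM ATP, 160 μM L-proline, 400 μM [32P]pyrophosphate (stock levels) and ran 30 min at room temperature. Charcoal-bound radioactivity was counted; inhibition was relative to no-reaction control.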

`Cc1cc(N2CC[C@@](C#N)(C3CC3)C2=O)cc(C(=O)NCc2cc(F)cc(-c3cnn(C)c3)c2)n1` [Example 159, 4-((3S)-3-cyano-3-cyclopropyl-2-oxopyrrolidin-1-yl)-N-(3-fluoro-5-(1-methyl-1H-pyrazol-4-yl)benzyl)-6-methylpyridine-2-carboxamide]: the inhibition at 1 µM in assay [1] was determined as 96%. In addition, the inhibition at 0.3 µM in assay [2] was 101%.
